Entries after “also recorded” stand apart in the source; their conditions may differ. Read-outs that look alike come from different tables or passages of the source.
Assays:
[1] = Absorbance and fluorescence of phenol-benzoate derivatives in PBS 7.4; type: physicochemical; conditions: for λ maxem [nm] / λ maxex [nm] / ΦFluorescence / ε 400 nm: PBS 7.4; for Relative fluorescence emission: PBS 7.4, relative to 6a; for fluorescence emission intensity relative to parent benzoate without chlorine: 7a vs 6a, 9a vs 8a
Method: General. […] Fluorescence quantum yield was determined using Hamamatsu Quantaurus-QY.
To evaluate the substituent effect, numerous phenol-benzoate derivatives with acceptor substituents at ortho and para positions of the phenol were synthesized, and their fluorescent emission in PBS 7.4 were measured. The most significant effect was obtained when an acceptor was incorporated at the ortho position of the phenol. Following broad screen of electron-withdrawing groups, we chose to focus on the chlorine, methyl-acrylate and acrylonitrile substituents. It was previously shown that in order to enable the chemiexcitation mechanism under physiological conditions, a chlorine substituent is introduced at the ortho position of phenolic ring. This electron-withdrawing substituent decreases the pKa of the phenol released after cleavage of the protecting group and thereby enriches the relative concertation of the phenolate species in physiological pH. The methyl-acrylate and acrylonitrile substituents induced the highest increase in fluorescence emission of their corresponded phenol-benzoates. The absorbance and fluorescence spectra of selected phenol-benzoate derivatives are shown in FIG. 11, and their molecular structure and spectroscopic parameters are summarized Table 9.

[2] = reference compound, known value (Trofimov et al., 1996; Edwards et al., 1994); cited from earlier work
[3] = Chemiluminescence of adamantylidene-dioxetane luminophores 5b-9b in PBS 7.4; type: physicochemical; conditions: for λ maxCL [nm] / chemiluminescence emission signal relative to dioxetane 5b: PBS 7.4; for Relative CL emission: relative to 5b; for chemiluminescence emission signal upon deprotonation: water / PBS 7.4; for ΦCL(H20) %: aqueous, 5b as reference
β-galactosidase = conditions: 1 μM, 1.5 units/mL β-galactosidase; for chemiluminescence emission signal relative to Probe 5: PBS pH 7.4 (10% DMSO), room temp
Method: Next, we measured the light chemiluminescence emission of the probes, as a function of time, in the presence and in the absence of β-galactosidase.
Commercially available Emerald-II™ enhancer (10%) was added to Probe 5 in the presence of β-galactosidase (in PBS 7.4) and its chemiluminescence emission was compared to that of Probe 6.

[4] = Chemiluminescence detection of hydrogen peroxide by Probe 10; type: biochemical
Method: (§1) On the left—a comparison between light emission observed by Probe 10 (1 mM; left vial) to that observed by Luminol (1 mM; right vial) upon incubation with hydrogen peroxide under aqueous conditions at pH 10. Probe 12 is a chemiluminescence for detection of GSH.
(§2) FIGS. 15A-15B show (15A) total light emitted from Probe 10 (100 μM), Probe 11 (10 μM) and Probe 12 (10 μM) in the presence of hydrogen peroxide (1 mM), alkaline phosphatase (AP) (1.5 EU/ml) or glutathione (1 mM). Measurements were conducted in PBS (100 mM), pH 7.4, with 10% DMSO at RT; and (15B) total light emitted from Probe 10 (500 μM), Probe 11 (500 μM) and Probe 12 (10 μM) in PBS (100 mM), pH 7.4 with 10% DMSO over a period of 1 h, with various concentration of the corresponding stimulus. A detection limit (blank control+3 SD) was determined for each probe.
(§3) The activation of our chemiluminescence probes is based on removal of a protecting group from the phenolic moiety. Therefore, different phenol-protecting groups could be incorporated as triggering substrates for various analytes/enzymes (Redy-Keisar et al., 2014). […] Probe 10 was equipped with boronic-ester as a substrate for hydrogen peroxide, Probe 11 with phosphate group as a substrate for alkaline-phosphatase and Probe 12 with dinitro-benzene-sulfonyl group as a substrate for GSH (FIG. 14). The probes were prepared with an acrylic acid or methyl acrylate substituent at the ortho position of the phenolic oxygen. […] As described above, the probes decompose upon their activation to release the excited state of the coresponed benzoate. The acrylate substituent efficiently increases the emissive nature of the released benzoate to produce strong light emission, clearly visible to the naked eye.
(§4) To evaluate the sensitively and selectivity of Probes 10, 11 and 12 to detect their corresponded analyte/enzyme, we determined the probes' limit of detection (LOD). […] Probe 10 could detect hydrogen peroxide with an LOD value of 30 nM, Probe 11 could detect alkaline-phosphatase with an LOD value of 3.9 μU/ml and Probe 12 could detect GSH with an LOD value of 1.7 μM.

Aqueous solubility = type: physicochemical
[5] = tested on: alkaline phosphatase (AP); experiment: Chemiluminescence detection of alkaline phosphatase by Probe 11; type: biochemical
Method: as §1
FIGS. 15A-15B show (15A) total light emitted from Probe 10 (100 μM), Probe 11 (10 μM) and Probe 12 (10 μM) in the presence of hydrogen peroxide (1 mM), alkaline phosphatase (AP) (1.5 EU/ml) or glutathione (1 mM). […]; and (15B) total light emitted from Probe 10 (500 μM), Probe 11 (500 μM) and Probe 12 (10 μM) in PBS (100 mM), pH 7.4 with 10% DMSO over a period of 1 h, with various concentration of the corresponding stimulus. A detection limit (blank control+3 SD) was determined for each probe.
as §3, §4

[6] = Chemiluminescence detection of glutathione by Probe 12; type: biochemical
Method: as §2
The activation of our chemiluminescence probes is based on removal of a protecting group from the phenolic moiety. Therefore, different phenol-protecting groups could be incorporated as triggering substrates for various analytes/enzymes (Redy-Keisar et al., 2014). […] Probe 10 was equipped with boronic-ester as a substrate for hydrogen peroxide, Probe 11 with phosphate group as a substrate for alkaline-phosphatase and Probe 12 with dinitro-benzene-sulfonyl group as a substrate for GSH (FIG. 14). The probes were prepared with an acrylic acid or methyl acrylate substituent at the ortho position of the phenolic oxygen. […]
To evaluate the sensitively and selectivity of Probes 10, 11 and 12 to detect their corresponded analyte/enzyme, we determined the probes' limit of detection (LOD). […]

[7] = 500 μM probe, PBS (100 mM) pH 7.4, 10% DMSO, 1 h, blank control+3 SD

SMILES	λ maxem [nm] [1] [nm]	λ maxex [nm] [1] [nm]	Relative fluorescence emission [1]	λ maxCL [nm] [3] [nm]	Relative CL emission [3]	chemiluminescence emission signal upon deprotonation [3]	further results
COC(=O)c1cccc(O)c1 [Benzoate 4a, reference compound]	470	290	do not present any measurable fluorescence; also recorded: negligible	–	–	–	–
COC(=O)c1cccc(O)c1Cl [Benzoate 5a, reference compound]	470	290	do not present any measurable fluorescence; also recorded: Negligible	–	–	–	–
COC(=O)/C=C/c1ccc(C(=O)OC)cc1O [Benzoate 6a]	550	400	1	–	–	–	ΦFluorescence [1]: 0.5%; ε 400 nm [1]: 1200
COC(=O)/C=C/c1ccc(C(=O)OC)c(Cl)c1O [Benzoate 7a]	550	400	10.6	–	–	–	fluorescence emission intensity relative to parent benzoate without chlorine [1]: about 10 fold; ΦFluorescence [1]: 5.2%; ε 400 nm [1]: 7400
COC(=O)c1ccc(/C=C/C#N)c(O)c1 [Benzoate 8a]	525	400	4.7	–	–	–	ΦFluorescence [1]: 7%; ε 400 nm [1]: 2200
COC(=O)c1ccc(/C=C/C#N)c(O)c1Cl [Benzoate 9a]	525	400	18.0	–	–	–	fluorescence emission intensity relative to parent benzoate without chlorine [1]: about 4 fold; ΦFluorescence [1]: 29.8%; ε 400 nm [1]: 7700
COC1(c2cccc(O)c2Cl)OOC12C1CC3CC(C1)CC2C3 (centres unmarked) [Phenol 5b, reference compound]	–	–	–	470	1	extremely weak	ΦCL(H20) % [2]: 3.2×10^−3%
COC(=O)/C=C/c1ccc(C2(OC)OOC23C2CC4CC(C2)CC3C4)cc1O (centres unmarked) [Phenol 6b]	–	–	–	540	724	remarkably strong chemiluminescence emission signal	chemiluminescence emission signal relative to dioxetane 5b [3]: about 700 fold; ΦCL(H20) % [3]: 2.3%
COC(=O)/C=C/c1ccc(C2(OC)OOC23C2CC4CC(C2)CC3C4)c(Cl)c1O (centres unmarked) [Phenol 7b]	–	–	–	540	780	remarkably strong chemiluminescence emission signal	ΦCL(H20) % [3]: 2.5%
COC1(c2ccc(/C=C/C#N)c(O)c2)OOC12C1CC3CC(C1)CC2C3 (centres unmarked) [Phenol 8b]	–	–	–	525	2295	remarkably strong chemiluminescence emission signal	ΦCL(H20) % [3]: 7.4%
COC1(c2ccc(/C=C/C#N)c(O)c2Cl)OOC12C1CC3CC(C1)CC2C3 (centres unmarked) [Phenol 9b]	–	–	–	525	3043	remarkably strong chemiluminescence emission signal	chemiluminescence emission signal relative to dioxetane 5b [3]: about 3000 fold; ΦCL(H20) % [3]: 9.8%
COC(=O)/C=C/c1ccc(C2(OC)OOC23C2CC4CC(C2)CC3C4)cc1OCc1ccc(O[C@@H]2OC(CO)[C@H](O)C(O)C2O)cc1 (some centres unmarked) [Probe 6]	–	–	–	–	–	–	chemiluminescence emission signal relative to Probe 5 (β-galactosidase): about 500 fold
COC1(c2ccc(/C=C/C#N)c(OCc3ccc(O[C@@H]4OC(CO)[C@H](O)C(O)C4O)cc3)c2Cl)OOC12C1CC3CC(C1)CC2C3 (some centres unmarked) [Probe 9]	–	–	–	–	–	–	chemiluminescence emission signal relative to Probe 5 with Emerald-II™ enhancer (β-galactosidase; PBS 7.4 (10% DMSO)): more than 8 fold; chemiluminescence emission signal relative to Probe 5 (β-galactosidase): about 1800 fold
COC1(c2ccc(/C=C/C(=O)O)c(B3OC(C)(C)C(C)(C)O3)c2)OOC12C1CC3CC(C1)CC2C3 (centres unmarked) [Probe 10]	–	–	–	–	–	–	LOD for hydrogen peroxide [4, 7]: 30 nM; luminescence upon reaction with analyte ([4]; 1 mM, pH 10): bright green luminescence; selectivity towards analyte of choice ([4]; vs alkaline phosphatase and glutathione, physiological conditions): very good selectivity; aqueous solubility (Aqueous solubility): increased significantly
COC1(c2ccc(/C=C/C(=O)O)c(OP(=O)(O)O)c2)OOC12C1CC3CC(C1)CC2C3 (centres unmarked) [Probe 11]	–	–	–	–	–	–	LOD for alkaline-phosphatase [5, 7]: 3.9 μU/ml; luminescence upon reaction with enzyme ([5]; 1 mM, pH 10): bright green luminescence; selectivity towards analyte of choice ([5]; vs hydrogen peroxide and glutathione, physiological conditions): very good selectivity; aqueous solubility (Aqueous solubility): increased significantly
COC(=O)/C=C/c1ccc(C2(OC)OOC23C2CC4CC(C2)CC3C4)cc1OCc1ccc(NS(=O)(=O)c2ccc([N+](=O)[O-])cc2[N+](=O)[O-])cc1 (centres unmarked) [Probe 12]	–	–	–	–	–	–	LOD for GSH ([6]; 10 μM probe, PBS (100 mM) pH 7.4, 10% DMSO, 1 h, blank control+3 SD): 1.7 µM; selectivity towards analyte of choice ([6]; vs hydrogen peroxide and alkaline phosphatase, physiological conditions): very good selectivity; aqueous solubility (Aqueous solubility): relatively moderate aqueous solubility; applicable concentration range (Aqueous solubility; aqueous): 1 to 10 µM
